The data set relates to mpkCCDcl4 cells. The data set can be described thus: Ussing-chamber short-circuit current (SCC) measurement of net transepithelial ion transport. It is filed as cell-based, mouse. As to conditions: for effect of pretreatment on cyst fluid stimulated ion transport (SCC): inhibitor/effector added before 10% cyst fluid on serosal side; for ion transport (SCC) response to addition of the substance itself: added to the bathing media of monolayers, no prior stimulus. The method, then: mpkCCDcl4 cell culture. mpkCCDcl4 cells were developed as a line expressing the characteristics of the principal cell type of the distal nephron and cortical collecting duct. mpkCCDcl4 cells were grown in a humidified chamber at 37° C. and 5% CO2. The cell line was maintained in plastic culture flasks for propagation. For electrophysiological measurements, the cells were seeded onto Transwell filters at ¼ confluent density. The media was replaced thrice weekly and consisted of Dulbecco's modified Eagle's medium (DMEM): Ham's F12 basal media supplemented with 2% fetal bovine serum, 1 mM Glutamax, 25 U/mL penicillin, […] streptomycin, 12 mg/L ciprofloxacin, 5 mg/L transferrin, 20 μg/L sodium selenite, and 10^−7 M triiodothyronine.
Electrophysiology. Ussing-style electrophysiological measurements were used to measure net transepithelial transport as well as to monitor the transepithelial resistance as described previously. Briefly, transwell permeable membranes containing confluent (>10 days post seeding) monolayers of mpkCCDcl4 cells were excised from the plastic supports, mounted in modified Ussing chambers, and connected to a DVC-1000 Voltage/Current Clamp (World Precision Instruments) with voltage and current electrodes on either side of the membrane. The cells were bathed in serum-free medium maintained at 37° C. via water-jacketed buffer chambers on either side of the filter. Medium was circulated and kept at constant pH using a 5% CO2/95% O2 gas lift. The spontaneous transepithelial potential difference was measured and then clamped to zero. The resulting short-circuit current (SCC) is a measure of net transepithelial ion transport. During the entire experiment, non-zero voltage pulses are induced every 200 seconds and the current displacement during the pulse is used to calculate the transepithelial resistance via Ohm's law. Cultures with resistances lower than 1000 Ω·cm^2 measured within the first 10 minutes of placement in the chambers were discarded. The basal level of transport was monitored for 20-40 minutes before the start of an experiment. The time of addition of the stimulatory effector is defined as zero time.
Unless otherwise stated, each experiment was repeated 3-4 times. Because of variability in the magnitude of the stimulatory responses to cyst fluid from various patients, only one representative experiment is depicted.
The functional effects of cyst fluid were measured as changes in net transepithelial ion transport across high resistance epithelia formed by the mpkCCDcl4 cell line. […] For electrophysiological measurements, confluent cell monolayers grown on permeable supports are mounted in Ussing chambers with access to both the basolateral and apical surfaces. The spontaneous transepithelial potential difference is measured and clamped to zero. In high resistance epithelia, the resulting short-circuit current (SCC) is a measure of net transepithelial transport. By convention, a positive change is defined as anion moving in a secretory direction (serosal to luminal bathing media) or a cation moving in an absorptive direction (luminal to serosal bathing media). Likewise, a decrease in SCC can be defined as anions or cations moving in the opposite direction from that described above. The nature and direction of the ion flux is characterized by effectors and inhibitors.

The record followed here is patent US9579335B2, “Treatment of cystic diseases” (Indiana University Research and Technology Corporation, priority 2010, dated 2017).

Regarding `[Ba+2]` [Ba^2+], for the setting “pretreatment on the apical face”, the “effect on stimulated Cl- secretion” value is listed as “without effect”. In addition, the “inhibition of stimulated Cl- secretion” value (pretreatment on the serosal side) is reported as “about 50%”.
Turning to `CCCCCCCCCCCCOP(=O)(O)O` [DDP, dodecylphosphate], the “effect of pretreatment on cyst fluid stimulated ion transport (SCC)” value (from here on “effect of pretreatment”) is reported as “no effect”.
Turning to `CCCCCCCC(=O)OC[C@H](COP(=O)(O)OP(=O)(O)O)OC(=O)CCCCCCC` [DGPP, diacylglycerol pyrophosphate], the “concentrations with adverse effect on integrity of the cellular monolayer (decrease in transepithelial resistance)” value is “above 20 μM” and the “effect of pretreatment” value is listed as “substantially inhibited”. Under “pretreatment with 20 μM DGPP, five experiments”, the “average inhibition of the Cl- secretory peak stimulated in response to 10% cyst fluid” value is listed as 72.8+4.49%.
Regarding `O=C(CNc1ccc2ccccc2c1)N/N=C/c1cc(Br)c(O)c(Br)c1O` [GlyH-101], the “ion transport (SCC) response to addition of the substance itself” value (shortened to “ion transport (SCC) response to addition”) is “causes a stimulatory response when added” and the “effect of pretreatment” value is “Neither inhibitor alone completely blocked the response”.
Take `COc1ccc2c(c1)c(CC(=O)O)c(C)n2C(=O)c1ccc(Cl)cc1` [Indomethacin, indomethacin]: the “effect of pretreatment” value is listed as “did not alter”.
Take `CCCCCCCCCCCCC/C=C/[C@@H](O)[C@@H](N)COP(=O)(O)O` [S-1-P, sphingosine-1-phosphate]: the “ion transport (SCC) response to addition” value was “consistently minimal compared to those elicited by LPA”.
Consider `N=C(N)NC(=O)c1nc(Cl)c(N)nc1N` [amiloride], for which the “ion transport (SCC) response to addition” value is reported as “immediate decrease in the basal current”. Also, the “effect of pre-treatment on subsequent response to forskolin” value (amiloride 10^-5 M apical, 10 minutes before forskolin) is “completely eliminated a subsequent response to forskolin”. The “effect on forskolin-stimulated ion transport, added after forskolin” value (amiloride 10^-5 M apical, 30 minutes after forskolin) is recorded as “completed inhibited”. In addition, the “effect on ion transport remaining 30 minutes after cyst fluid addition” value (amiloride added to apical bathing media) is listed as “decreased the remaining ion transport to zero”.
Consider `O=C(OC[C@H]1O[C@@H](OC(=O)c2cc(O)c(O)c(OC(=O)c3cc(O)c(O)c(O)c3)c2)[C@H](OC(=O)c2cc(O)c(O)c(OC(=O)c3cc(O)c(O)c(O)c3)c2)[C@@H](OC(=O)c2cc(O)c(O)c(OC(=O)c3cc(O)c(O)c(O)c3)c2)[C@@H]1OC(=O)c1cc(O)c(O)c(OC(=O)c2cc(O)c(O)c(O)c2)c1)c1cc(O)c(O)c(OC(=O)c2cc(O)c(O)c(O)c2)c1` [tannic acid], for which the “effect of pretreatment” value was “Neither inhibitor alone completely blocked the response”.
Consider “N-palmitoyl-L-serine phosphoric acid [L-NASPA]”, for which the “ion transport (SCC) response to addition” value is reported as “immediate response that mimics the response to LPA or 10% cyst fluid” and the “effect of pretreatment” value is recorded as “appears to inhibit a subsequent response to cyst fluid”.
As to lysophosphatic acid [LPA], the “ion transport (SCC) response to addition” value is “identical to the response to renal cyst fluid”.
